Data: paper doi:10.1101/2021.05.17.444520v1 (biorxiv, 2021)

Target: T1, α2wt (Homo sapiens, UniProt P23416)
T1 sequence (P23416 28-452): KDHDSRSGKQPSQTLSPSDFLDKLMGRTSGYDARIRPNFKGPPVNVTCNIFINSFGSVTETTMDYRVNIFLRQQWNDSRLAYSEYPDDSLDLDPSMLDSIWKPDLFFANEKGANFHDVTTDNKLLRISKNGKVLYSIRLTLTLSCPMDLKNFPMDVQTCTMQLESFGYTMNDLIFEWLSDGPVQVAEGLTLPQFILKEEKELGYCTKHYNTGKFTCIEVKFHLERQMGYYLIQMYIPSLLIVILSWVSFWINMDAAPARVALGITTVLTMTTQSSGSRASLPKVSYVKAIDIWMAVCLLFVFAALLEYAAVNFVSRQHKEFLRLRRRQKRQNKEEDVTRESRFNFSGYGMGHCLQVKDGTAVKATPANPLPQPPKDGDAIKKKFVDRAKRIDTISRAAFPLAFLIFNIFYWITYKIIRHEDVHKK
Assay: whole-cell patch clamp
Assay type: cell-based
Conditions: agonist; pH 7.4; -80 mV

EC50: Dose response of glycine from (A)
Structure (SMILES): NCC(=O)O [glycine]
